Results on two compounds are retold here after patent publication US12667602B2, “Composition for preventing, treating or alleviating diabetes, comprising LGI3-derived peptide as an active ingredient” (CHUNG-ANG UNIVERSITY INDUSTRY-ACADEMIC COOPERATION …, priority 2019, dated 2026).

In brackets after ≈: the same amount, converted by molar mass. Residues, ends and D or L forms follow the SMILES beside them.

The data set can be described thus: Solubility in water. Type of data set: physicochemical.

As a reminder, the solubility is the concentration that dissolves in the medium under given conditions. Read a low solubility as little dissolved substance.

For `CC(C)C[C@H](NC(=O)[C@H](C)NC(=O)[C@H](CCC(N)=O)NC(=O)[C@H](Cc1c[nH]cn1)NC(=O)[C@H](CO)NC(=O)[C@H](Cc1ccc(O)cc1)NC(=O)[C@H](Cc1ccccc1)NC(=O)CNC(=O)[C@H](CC(N)=O)NC(=O)[C@@H](N)CCC(N)=O)C(=O)N[C@@H](Cc1c[nH]cn1)C(=O)N[C@@H](C)C(=O)N[C@@H](Cc1c[nH]c2ccccc12)C(=O)N[C@@H](Cc1c[nH]cn1)C(=O)N[C@@H](CCCNC(=N)N)C(=O)O` [P25] (H-QNGFYSHQALHAWHR-OH; N-terminus and C-terminus assumed), the solubility is 10000 µg/mL (≈ 5400 µM).

`CC(C)C[C@H](NC(=O)[C@H](CCC(=O)O)NC(=O)[C@H](CCC(N)=O)NC(=O)[C@H](Cc1ccccc1)NC(=O)[C@H](CCCNC(=N)N)NC(=O)[C@@H](NC(=O)[C@H](Cc1ccccc1)NC(=O)[C@H](CCCCN)NC(=O)[C@H](CCC(N)=O)NC(=O)[C@H](CCCNC(=N)N)NC(=O)CNC(=O)[C@H](CCC(=O)O)NC(=O)[C@@H](N)CC(=O)O)C(C)C)C(=O)N[C@@H](C)C(=O)N[C@H](C(=O)O)C(C)C` [P34] (H-DEGRQKFVRFQELAV-OH; N-terminus and C-terminus assumed): the solubility came out at 1000 µg/mL (≈ 549 µM).
